Results published in patent publication US9382188B2, “Aromatic ring compound” (TAKEDA PHARMACEUTICAL COMPANY LIMITED, priority 2012, dated 2016).

Target: T1, human GPR40 (Homo sapiens, UniProt O14842)
T1 construct: expressed in transfected cells
Assay: Evaluation of human GPR40 agonist activity with increase in intracellular Ca2+ concentration as an index (FLIPR Tetra)
Format: cell-based
Settings: test compound 1 μM; CHO(dhfr-) cells stably expressing human GPR40; 100% = activity of 1 μM WO2009/048527 Example 99.2, 0% = DMSO
In short: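 CHO(dhfr-) cells stably expressing human GPR40, loaded with Calcium 5 dye in HEPES/HBSS buffer with 0.2% fatty acid-free BSA and probenecid, 1 h at 37° C. Test compound added at 1 μM final; fluorescence Ca2+ rise scaled to a reference agonist at 1 μM (100%) and DMSO (0%).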

T1 sequence (O14842 whole entry): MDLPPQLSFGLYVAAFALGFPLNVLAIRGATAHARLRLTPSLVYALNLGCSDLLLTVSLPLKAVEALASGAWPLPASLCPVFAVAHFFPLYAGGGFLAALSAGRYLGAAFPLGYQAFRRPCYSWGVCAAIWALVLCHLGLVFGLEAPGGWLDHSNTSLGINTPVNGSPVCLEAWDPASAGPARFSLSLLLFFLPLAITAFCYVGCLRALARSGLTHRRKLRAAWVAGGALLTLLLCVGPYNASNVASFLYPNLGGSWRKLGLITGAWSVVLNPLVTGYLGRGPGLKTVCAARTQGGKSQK

SMILES | activation at 1 µM [%] | Human GPR40 agonist activity (increase in intracellular Ca2+ concentration) [%]
COc1ccc(F)c(-c2ccc(SCc3cccc(C(CC(=O)O)C4CC4)c3)cc2CC(C)(C)C)c1 (stereo not drawn) [Example 12, 3-cyclopropyl-3-(3-(((2-(2,2-dimethylpropyl)-2′-fluoro-5′-methoxybiphenyl-4-yl)sulfanyl)methyl)phenyl)propanoic acid] | 113 | –
COc1ccc(F)c(-c2ccc(OCc3cccc(C(CC(=O)O)C4CC4)c3)cc2CCC(C)(C)C)c1 (stereo not drawn) [Example 93, 3-cyclopropyl-3-(3-(((2-(3,3-dimethylbutyl)-2′-fluoro-5′-methoxybiphenyl-4-yl)oxy)methyl)phenyl)propanoic acid] | 106 | –
COc1ccc(F)c(-c2ccc(OCc3cccc(C(CC(=O)O)C4CC4C#N)c3)cc2CC(C)(C)C)c1 (stereo not drawn) [Example 87, 3-(2-cyanocyclopropyl)-3-(3-(((2′-fluoro-5′-methoxy-2-neopentyl-[1,1′-biphenyl]-4-yl)oxy)methyl)phenyl)propanoic acid] | 98 | –
CC(C)(C)Cc1cc(OCc2cccc(C(CC(=O)O)C3CC3)c2)cnc1-c1cccc(O)c1 (stereo not drawn) [Example 55, 3-cyclopropyl-3-(3-(((5-(2,2-dimethylpropyl)-6-(3-hydroxyphenyl)pyridin-3-yl)oxy)methyl)phenyl)propanoic acid] | 126 | –
COc1ccc(F)c(-c2ccc(OCc3cccc(C(CC(=O)O)C4CC4)c3)cc2OC(C)(C)C)c1 (stereo not drawn) [Example 74, 3-(3-(((2-tert-butoxy-2′-fluoro-5′-methoxybiphenyl-4-yl)oxy)methyl)phenyl)-3-cyclopropylpropanoic acid] | 104 | –
CC#CC(CC(=O)O)c1cccc(COc2ccc(-c3cc(OC)ccc3F)c(CC(C)(C)C)c2)c1 (stereo not drawn) [Example 76, 3-(3-(((2′-fluoro-5′-methoxy-2-neopentyl-[1,1′-biphenyl]-4-yl)oxy)methyl)phenyl)hex-4-ynoic acid] | 95 | –
COc1ccc(F)c(-c2ccc(OCc3cccc(C(CC(=O)O)C4CC4C#N)c3)cc2CC(C)(C)C)c1 (stereo not drawn) [Example 88, 3-(2-cyanocyclopropyl)-3-(3-(((2′-fluoro-5′-methoxy-2-neopentyl-[1,1′-biphenyl]-4-yl)oxy)methyl)phenyl)propanoic acid] | – | 112
COc1ccc(F)c(-c2ccc(OCc3cccc(C(CC(=O)O)C4CC4)c3)nc2CC(C)(C)C)c1 (stereo not drawn) [Example 6, sodium 3-cyclopropyl-3-(3-(((6-(2,2-dimethylpropyl)-5-(2-fluoro-5-methoxyphenyl)pyridin-2-yl)oxy)methyl)phenyl)propanoate] | – | 98
CCC(C)(C)C(OC)c1cc(OCc2cccc(C(CC(=O)O)C3CC3)c2)ccc1-c1cc(OC)ccc1F (stereo not drawn) [Example 109, 3-cyclopropyl-3-(3-(((2′-fluoro-5′-methoxy-2-(1-methoxy-2,2-dimethylbutyl)biphenyl-4-yl)oxy)methyl)phenyl)propanoic acid] | 119 | –
CC(C)(C)Cc1cc(OCc2cccc(C(CC(=O)O)C3CC3)c2)cnc1-c1cccc(S(=O)(=O)N2CCOCC2)c1 (stereo not drawn) [Example 67, 3-cyclopropyl-3-(3-(((5-(2,2-dimethylpropyl)-6-(3-(morpholin-4-ylsulfonyl)phenyl)pyridin-3-yl)oxy)methyl)phenyl)propanoic acid] | 8 | –
CC(C)(C)Cc1cc(OCc2cccc(C(CC(=O)O)C3CC3)c2)cnc1-c1cccc(C(=O)O)c1 (stereo not drawn) [Example 51, 3-(5-((3-(2-carboxy-1-cyclopropylethyl)benzyl)oxy)-3-(2,2-dimethylpropyl)pyridin-2-yl)benzoic acid] | 0 | –
COc1ccc(F)c(-c2ccc(OCc3cccc(C(CC(=O)O)C4CC4)c3)cc2-c2nnc(C(F)(F)F)s2)c1 (stereo not drawn) [Example 75, 3-cyclopropyl-3-(3-(((2′-fluoro-5′-methoxy-2-(5-(trifluoromethyl)-1,3,4-thiadiazol-2-yl)-[1,1′-biphenyl]-4-yl)oxy)methyl)phenyl)propanoic acid] | 91 | –
COc1ccc(F)c(-c2ccc(OCc3cccc(CCC(=O)O)c3)cc2CC(C)(C)C)c1 [Example 7, 3-(3-(((2-(2,2-dimethylpropyl)-2′-fluoro-5′-methoxybiphenyl-4-yl)oxy)methyl)phenyl)propanoic acid] | 108 | –
COc1ccc(F)c(-c2ccc(OCc3cccc(C(CC(=O)O)C4CCCC4)c3)cc2CC(C)(C)C)c1 (stereo not drawn) [Example 39, 3-cyclopentyl-3-(3-(((2-(2,2-dimethylpropyl)-2′-fluoro-5′-methoxybiphenyl-4-yl)oxy)methyl)phenyl)propanoic acid] | 105 | –

Other lines, results leading:

activation at 1 µM [%] | Human GPR40 agonist activity (increase in intracellular Ca2+ concentration) [%] | SMILES
105 | – | COc1cc(-c2ccc(OCc3cccc(C(CC(=O)O)C4CC4)c3)cc2CC(C)(C)C)c(F)cn1 (stereo not drawn) [Example 104, 3-cyclopropyl-3-(3-((3-(2,2-dimethylpropyl)-4-(5-fluoro-2-methoxypyridin-4-yl)phenoxy)methyl)phenyl)propanoic acid]
106 | – | COc1ccc(F)c(-c2ccc(OCc3cc(C(CC(=O)O)C4CC4)ccn3)cc2CC(C)(C)C)c1 (stereo not drawn) [Example 24, 3-cyclopropyl-3-(2-(((2-(2,2-dimethylpropyl)-2′-fluoro-5′-methoxybiphenyl-4-yl)oxy)methyl)pyridin-4-yl)propanoic acid]
3 | – | COc1ccc(-c2ncc(OCc3cccc(C(CC(=O)O)C4CC4)c3)cc2CC(C)(C)C)cc1OC (stereo not drawn) [Example 54, 3-cyclopropyl-3-(3-(((6-(3,4-dimethoxyphenyl)-5-(2,2-dimethylpropyl)pyridin-3-yl)oxy)methyl)phenyl)propanoic acid]
114 | – | COc1ccc(C)c(-c2ncc(OCc3cccc(C(CC(=O)O)C4CC4)c3)cc2CC(C)(C)C)c1 (stereo not drawn) [Example 58, 3-cyclopropyl-3-(3-(((5-(2,2-dimethylpropyl)-6-(5-methoxy-2-methylphenyl)pyridin-3-yl)oxy)methyl)phenyl)propanoic acid]
55 | – | CC(C)(C)Cc1cc(OCc2cccc(C(CC(=O)O)C3CC3)c2)cnc1-c1ccccc1 (stereo not drawn) [Example 45, 3-cyclopropyl-3-(3-(((5-(2,2-dimethylpropyl)-6-phenylpyridin-3-yl)oxy)methyl)phenyl)propanoic acid]
107 | – | COc1ccc(F)c(-c2ccc(OCc3cccc(C(CC(=O)O)C4CC4)c3)cc2C(O)C(C)(C)C)c1 (stereo not drawn) [Example 95]
111 | – | COc1ccc(F)c(-c2ccc(OCc3cccc(C(CC(=O)O)C4CC4)c3)cc2OCC(C)(C)C)c1 (stereo not drawn) [Example 38, 3-cyclopropyl-3-(3-(((2-(2,2-dimethylpropoxy)-2′-fluoro-5′-methoxybiphenyl-4-yl)oxy)methyl)phenyl)propanoic acid]
120 | – | COc1ccc(F)c(-c2ccc(OCc3cccc(C(CC(=O)O)C4CC4)c3)cc2-c2cnc(C)s2)c1 (stereo not drawn) [Example 19, 3-cyclopropyl-3-(3-(((2′-fluoro-5′-methoxy-2-(2-methyl-1,3-thiazol-5-yl)biphenyl-4-yl)oxy)methyl)phenyl)propanoic acid]
3 | – | CC(C)(C)Cc1cc(OCc2cccc(C(CC(=O)O)C3CC3)c2)cnc1-c1cc(OC2CCCCO2)ccc1F (stereo not drawn) [Example 44, 3-cyclopropyl-3-(3-(((5-(2,2-dimethylpropyl)-6-(2-fluoro-5-(tetrahydro-2H-pyran-2-yloxy)phenyl)pyridin-3-yl)oxy)methyl)phenyl)propanoic acid]
103 | – | COc1ccc(F)c(-c2ccc(OCc3cccc(C(CC(=O)O)C4CC4)c3)cc2COCC(C)(C)C)c1 (stereo not drawn) [Example 114, 3-cyclopropyl-3-(3-(((2′-fluoro-5′-methoxy-2-((neopentyloxy)methyl)-[1,1′-biphenyl]-4-yl)oxy)methyl)phenyl)propanoic acid]
